Drawing on patent publication US8148391B2 (Cephalon, Inc., priority 2006, dated 2012), this text covers IC50 for 18 compounds.

Where two headings read alike, the source gives them in different places.

The target of assay [1] is T1, baculovirus-expressed ALK (Homo sapiens, UniProt Q9UM73).
T1 construct: host or cells: baculovirus expression system
Nature of the assay: ALK Kinase Assay (ELISA-type, time-resolved fluorescence). The class given is biochemical. The method, boiled down:
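Substrate coating: phospholipase C-γ, 10 μg/mL in TBS. Kinase step: 30 ng/ml ALK, 15 min, 37° C. Detection and analysis: Eu-N1 PT66 antibody, with IC50 fitted as a sigmoidal variable-slope dose-response curve.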
For orientation: ELISA stands for enzyme-linked immunosorbent assay.

Assay [2] deals with T2, c-Met (cytoplasmic domain) (Homo sapiens, UniProt P08581).
T2 construct: 10 ng/mL c-Met (cytoplasmic domain, Invitrogen Corporation #PV3143); purchased Invitrogen Corporation PV3143
Nature of the assay: c-Met Kinase Assay (same methods as for ALK, with modifications). The class given is biochemical. The method, then: Briefly, each 96-well plate was coated with 100 μL/well of 10 μg/mL substrate (phospholipase C-γ) in Tris-buffered saline (TBS). […] The reaction was initiated by adding enzyme (30 ng/ml ALK) and was allowed to proceed at 37° C. for 15 minutes. Detection of the phosphorylated product was performed by adding 100 μl/well of Eu-N1 labeled PT66 antibody (Perkin Elmer # AD0041).
Data analysis was performed using ActivityBase (IDBS, Guilford, UK). IC50 values were calculated by plotting percent inhibition versus log10 of the concentration of compound and fitting to the nonlinear regression sigmoidal dose-response (variable slope) equation in XLFit (IDBS, Guilford, UK).
Reactions were initiated with 10 ng/mL c-Met (cytoplasmic domain, Invitrogen Corporation #PV3143).

Setting [3] is: ALK kinase inhibition, 1 μM ATP (Km level), read-out: ALK Activity.
Setting [4] is: c-Met kinase inhibition, 1 μM ATP (Km level), read-out: cMet Activity.
Where [5] appears, read: 1 μM ATP (Km level), read-out: ALK Activity (ALK Kinase Inhibition, IC50).
Where [6] appears, read: 1 μM ATP (Km level), read-out: cMet Activity (c-Met Kinase Inhibition, IC50).
[7] abbreviates: 1 μM ATP (Km level), 30 ng/ml ALK, 37° C., 15 minutes, read-out: ALK Activity (ALK kinase inhibition, IC50 class).

T1 sequence (Q9UM73 19-1620): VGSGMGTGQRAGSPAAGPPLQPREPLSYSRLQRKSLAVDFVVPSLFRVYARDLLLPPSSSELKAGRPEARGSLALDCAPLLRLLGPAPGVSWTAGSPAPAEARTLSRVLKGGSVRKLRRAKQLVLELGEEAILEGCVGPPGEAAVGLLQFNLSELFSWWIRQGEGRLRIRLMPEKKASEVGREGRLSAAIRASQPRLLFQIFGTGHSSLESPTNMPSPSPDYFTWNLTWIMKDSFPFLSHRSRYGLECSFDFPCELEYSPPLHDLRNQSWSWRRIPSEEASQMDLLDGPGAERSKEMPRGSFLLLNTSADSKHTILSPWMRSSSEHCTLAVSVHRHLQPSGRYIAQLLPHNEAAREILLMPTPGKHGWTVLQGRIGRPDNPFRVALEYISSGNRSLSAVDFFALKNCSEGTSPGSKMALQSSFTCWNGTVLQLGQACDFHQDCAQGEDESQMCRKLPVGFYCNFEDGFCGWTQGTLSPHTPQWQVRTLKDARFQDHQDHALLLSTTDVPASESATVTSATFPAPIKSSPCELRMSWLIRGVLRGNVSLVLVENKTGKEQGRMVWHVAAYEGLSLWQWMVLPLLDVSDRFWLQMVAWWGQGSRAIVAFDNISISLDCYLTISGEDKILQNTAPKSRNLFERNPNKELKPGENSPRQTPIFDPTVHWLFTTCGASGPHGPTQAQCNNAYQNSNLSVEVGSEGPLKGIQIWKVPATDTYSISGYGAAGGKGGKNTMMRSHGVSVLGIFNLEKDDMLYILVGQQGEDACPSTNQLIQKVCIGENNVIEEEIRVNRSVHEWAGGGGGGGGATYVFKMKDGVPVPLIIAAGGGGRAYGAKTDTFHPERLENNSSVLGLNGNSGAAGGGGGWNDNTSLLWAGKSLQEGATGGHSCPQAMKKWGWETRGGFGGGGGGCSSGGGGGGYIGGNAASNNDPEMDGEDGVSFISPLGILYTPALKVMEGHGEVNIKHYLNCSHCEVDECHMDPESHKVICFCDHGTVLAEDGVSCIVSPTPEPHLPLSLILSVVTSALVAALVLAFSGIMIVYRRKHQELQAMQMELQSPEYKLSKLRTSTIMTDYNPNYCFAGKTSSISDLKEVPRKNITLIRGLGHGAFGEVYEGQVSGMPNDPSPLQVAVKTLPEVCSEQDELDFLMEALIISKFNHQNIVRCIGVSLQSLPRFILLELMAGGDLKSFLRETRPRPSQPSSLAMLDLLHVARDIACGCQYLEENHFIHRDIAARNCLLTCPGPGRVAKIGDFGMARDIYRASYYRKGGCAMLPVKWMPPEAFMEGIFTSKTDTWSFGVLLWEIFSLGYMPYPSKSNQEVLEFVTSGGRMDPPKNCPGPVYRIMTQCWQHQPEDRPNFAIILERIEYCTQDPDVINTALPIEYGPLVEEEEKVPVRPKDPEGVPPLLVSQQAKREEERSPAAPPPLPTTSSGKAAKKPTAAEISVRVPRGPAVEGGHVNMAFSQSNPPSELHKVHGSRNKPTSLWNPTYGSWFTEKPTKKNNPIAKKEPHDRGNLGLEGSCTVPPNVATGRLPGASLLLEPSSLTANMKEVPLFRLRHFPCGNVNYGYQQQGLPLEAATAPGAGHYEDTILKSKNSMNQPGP
T2 sequence (P08581 956-1390 limits assumed): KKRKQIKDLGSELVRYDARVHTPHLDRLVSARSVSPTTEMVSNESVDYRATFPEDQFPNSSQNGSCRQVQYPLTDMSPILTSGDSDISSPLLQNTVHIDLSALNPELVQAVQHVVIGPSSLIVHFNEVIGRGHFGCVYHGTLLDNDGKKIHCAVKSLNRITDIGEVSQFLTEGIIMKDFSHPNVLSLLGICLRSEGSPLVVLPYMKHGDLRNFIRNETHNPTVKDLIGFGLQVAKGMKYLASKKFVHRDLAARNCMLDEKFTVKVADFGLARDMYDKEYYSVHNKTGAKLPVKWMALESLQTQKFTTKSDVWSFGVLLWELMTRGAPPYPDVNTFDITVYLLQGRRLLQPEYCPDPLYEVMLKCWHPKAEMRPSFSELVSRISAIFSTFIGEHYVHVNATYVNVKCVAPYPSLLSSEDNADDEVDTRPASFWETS

`NC(=O)C1C2C=CC(C2)C1Nc1nc(Nc2ccc3c(c2)CCN(CC(O)C(F)(F)F)CC3)ncc1Cl` (mixture of isomers) [Example 334, (2-exo, 3-exo)-3-{5-Chloro-2-[3-((R)-3,3,3-trifluoro-2-hydroxy-propyl)-2,3,4,5-tetrahydro-1H-benzo[d]azepin-7-ylamino]-pyrimidin-4-ylamino}-bicyclo[2.2.1]hept-5-ene-2-carboxylic acid amide]: the IC50 in assay [1] (setting [3]) is below 100 nM; in assay [2] (setting [4]), 100 to 1000 nM.
For `COC(CN1CCc2ccc(Nc3ncc(Cl)c(NC4C5C=CC(C5)C4C(N)=O)n3)cc2CC1)C(F)(F)F` (mixture of isomers) [Example 338, (2-exo, 3-exo)-3-{5-Chloro-2-[3-((S)-3,3,3-trifluoro-2-methoxy-propyl)-2,3,4,5-tetrahydro-1H-benzo[d]azepin-7-ylamino]-pyrimidin-4-ylamino}-bicyclo[2.2.1]hept-5-ene-2-carboxylic acid amide], the results for the IC50 in assay [1] (setting [3]) and in assay [2] (setting [4]) were below 100 nM and 100 to 1000 nM, respectively.
Take `COc1c(Nc2ncc(Cl)c(N[C@@H]3CCCC[C@H]3NS(C)(=O)=O)n2)ccc2c1CCC(N1CCOCC1)CC2` (mixture of isomers) [Example 884, N-{(1R,2R)-2-[5-Chloro-2-(1-methoxy-7-morpholin-4-yl-6,7,8,9-tetrahydro-5H-benzocyclohepten-2-ylamino)-pyrimidin-4-ylamino]-cyclohexyl}-methanesulfonamide]: the IC50 in assay [1] (setting [5]) is below 100 nM; in assay [2] (setting [6]), above 10000 nM.
The matching figures for `COc1c(Nc2ncc(Cl)c(NC3CCCCNC3=O)n2)ccc2c1CCC(N1CCOCC1)CC2` (mixture of isomers) [Example 902, 3-[5-Chloro-2-(1-methoxy-7-morpholin-4-yl-6,7,8,9-tetrahydro-5H-benzocyclohepten-2-ylamino)-pyrimidin-4-ylamino]-azepan-2-one]: 100 to 1000 nM and above 10000 nM.
The matching figures for `COc1c(Nc2ncc(Cl)c(Nc3ccccc3S(=O)(=O)N3CCC(O)C3)n2)ccc2c1CCC(N1CCOCC1)CC2` (mixture of isomers) [Example 906, 1-{2-[5-Chloro-2-(1-methoxy-7-morpholin-4-yl-6,7,8,9-tetrahydro-5H-benzocyclohepten-2-ylamino)-pyrimidin-4-ylamino]-benzenesulfonyl}-pyrrolidin-3-ol]: below 100 nM and 1000 to 10000 nM.
On to `COc1c(Nc2ncc(Cl)c(Nc3ccccc3S(=O)(=O)N(C)C)n2)ccc2c1CCC(N1CCCC(O)C1)CC2` (mixture of isomers) [Example 907, 2-{5-Chloro-2-[7-(3-hydroxy-piperidin-1-yl)-1-methoxy-6,7,8,9-tetrahydro-5H-benzocyclohepten-2-ylamino]-pyrimidin-4-ylamino}-N,N-dimethyl-benzenesulfonamide], for which the results for the IC50 in assay [1] (setting [5]) and in assay [2] (setting [6]) were below 100 nM and above 10000 nM, respectively.
Regarding `COc1c(Nc2ncc(Cl)c(Nc3ccccc3S(=O)(=O)N3CCCC3)n2)ccc2c1CCC(N1CCCC(O)C1)CC2` (mixture of isomers) [Example 908, 1-(2-{5-Chloro-4-[2-(pyrrolidine-1-sulfonyl)-phenylamino]-pyrimidin-2-ylamino}-1-methoxy-6,7,8,9-tetrahydro-5H-benzocyclohepten-7-yl)-piperidin-3-ol], the IC50 in assay [1] (setting [5]) was below 100 nM; in assay [2] (setting [6]), 1000 to 10000 nM.
The matching figures for `COc1cc(N2CCOCC2)ccc1Nc1nc(Nc2ccc3c(c2OC)CCC(N2CCCC(O)C2)CC3)ncc1Cl` (mixture of isomers) [Example 913, 1-{2-[5-Chloro-4-(2-methoxy-4-morpholin-4-yl-phenylamino)-pyrimidin-2-ylamino]-1-methoxy-6,7,8,9-tetrahydro-5H-benzocyclohepten-7-yl}-piperidin-3-ol]: below 100 nM and above 10000 nM.
On to `COc1c(Nc2ncc(Cl)c(N[C@H]3[C@@H](C(N)=O)[C@@H]4C=C[C@H]3C4)n2)ccc2c1CC(N1CCOCC1)CCC2` (mixture of isomers) [Example 1204, (1S,2S,3R,4R)-3-[5-Chloro-2-(1-methoxy-8-morpholin-4-yl-6,7,8,9-tetrahydro-5H-benzocyclohepten-2-ylamino)-pyrimidin-4-ylamino]-bicyclo[2.2.1]hept-5-ene-2-carboxylic acid amide], for which the IC50 was below 100 nM in assay [1] (setting [7]) and above 10000 nM in assay [2] (cMet Activity (c-Met kinase inhibition, IC50 class), 1 μM ATP (Km level), 10 ng/mL c-Met).
In the case of `CN([C@@H]1CCCC[C@H]1Nc1nc(Nc2ccc3c(c2)CCC(N2CCOCC2)CC3)ncc1Cl)S(C)(=O)=O` (mixture of isomers) [Example 1681, N-{(1R,2R)-2-[5-Chloro-2-(7-morpholin-4-yl-6,7,8,9-tetrahydro-5H-benzocyclohepten-2-ylamino)-pyrimidin-4-ylamino]-cyclohexyl}-N-methyl-methanesulfonamide], the IC50 in assay [1] (ALK kinase inhibition, 1 μM ATP, read-out: ALK Activity) is below 100 nM; in assay [2] (c-Met kinase inhibition, 1 μM ATP, read-out: cMet Activity) it was 1000 to 10000 nM.
For `CCN1C2CCC1c1cc(Nc3ncc(Cl)c(Nc4ccccc4C(=O)NC)n3)ccc1C2` (racemic) [Example 101, (+/−)-2-[5-Chloro-2-(12-ethyl-12-aza-tricyclo[7.2.1.0*2,7*]dodeca-2(7),3,5-trien-4-ylamino)-pyrimidin-4-ylamino]-N-methyl-benzamide], the IC50 in assay [1] (setting [3]) and in assay [2] (setting [4]) was below 100 nM in each case.
As for `CNC(=O)c1ccccc1Nc1nc(Nc2ccc3c(c2)C2CCC(C3)N2S(C)(=O)=O)ncc1Cl` (racemic) [Example 102, (+/−)-2-[5-Chloro-2-(12-methanesulfonyl-12-aza-tricyclo[7.2.1.0*2,7*]dodeca-2(7),3,5-trien-4-ylamino)-pyrimidin-4-ylamino]-N-methyl-benzamide], the IC50 in assay [1] (setting [3]) and in assay [2] (setting [4]) was below 100 nM each time.
As to `CNC(=O)c1cccc(F)c1Nc1nc(Nc2ccc3c(c2)CCC(N2CCN(C)CC2)CC3)ncc1Cl` (racemic) [Example 899, 2-{5-Chloro-2-[7-(4-methyl-piperazin-1-yl)-6,7,8,9-tetrahydro-5H-benzocyclohepten-2-ylamino]-pyrimidin-4-ylamino}-3-fluoro-N-methyl-benzamide], the IC50 in assay [1] (setting [5]) and in assay [2] (setting [6]) was below 100 nM in each case.
`COc1c(Nc2ncc(Cl)c(Nc3ccccc3S(=O)(=O)C(C)C)n2)ccc2c1CCC(N1CCN(C)CC1)CC2` (racemic) [Example 914, 5-Chloro-N*2*-[1-methoxy-7-(4-methyl-piperazin-1-yl)-6,7,8,9-tetrahydro-5H-benzocyclohepten-2-yl]-N*4*-[2-(propane-2-sulfonyl)-phenyl]-pyrimidine-2,4-diamine]: the IC50 in assay [1] (setting [5]) was below 100 nM; in assay [2] (setting [6]), 1000 to 10000 nM.
Consider `CNC(=O)c1ccccc1Nc1nc(Nc2ccc3c(c2OC)CCC(N2CCOCC2)CC3)ncc1Cl` (racemic) [Example 915, 2-[5-Chloro-2-(1-methoxy-7-morpholin-4-yl-6,7,8,9-tetrahydro-5H-benzocyclohepten-2-ylamino)-pyrimidin-4-ylamino]-N-methyl-benzamide], for which the IC50 was below 100 nM in assay [1] (setting [5]) and 1000 to 10000 nM in assay [2] (setting [6]).
As for `COc1c(Nc2ncc(Cl)c(Nc3ccccc3S(=O)(=O)N(C)C)n2)ccc2c1CC(N1CCOCC1)CCC2` (racemic) [Example 1210, 2-[5-Chloro-2-(1-methoxy-8-morpholin-4-yl-6,7,8,9-tetrahydro-5H-benzocyclohepten-2-ylamino)-pyrimidin-4-ylamino]-N,N-dimethyl-benzenesulfonamide], the IC50 was below 100 nM in assay [1] (setting [7]) and 1000 to 10000 nM in assay [2] (1 μM ATP (Km level), 10 ng/mL c-Met, read-out: cMet Activity (c-Met kinase inhibition, IC50 class)).
Take `CCN1C(=O)CCCc2cc(Nc3ncc(Cl)c(N[C@@H]4[C@H]5CC[C@H](C5)[C@@H]4C(N)=O)n3)c(OC)cc21` (relative stereo) [Example 136, (2-exo,3-exo)-3-[5-Chloro-2-(1-ethyl-8-methoxy-2-oxo-2,3,4,5-tetrahydro-1H-benzo[b]azepin-7-ylamino)-pyrimidin-4-ylamino]-bicyclo[2.2.1]heptane-2-carboxylic acid amide]: the IC50 in assay [1] (setting [3]) is below 100 nM; in assay [2] (setting [4]), above 10000 nM.
Turning to `COc1c(Nc2ncc(Cl)c(N[C@H]3[C@@H](C(N)=O)[C@@H]4C=C[C@H]3C4)n2)ccc2c1CCCC(=O)N2` (relative stereo) [Example 139, (2-exo,3-exo)-3-[5-Chloro-2-(6-methoxy-2-oxo-2,3,4,5-tetrahydro-1H-benzo[b]azepin-7-ylamino)-pyrimidin-4-ylamino]-bicyclo[2.2.1]hept-5-ene-2-carboxylic acid amide], the IC50 is below 100 nM in assay [1] (setting [3]) and above 10000 nM in assay [2] (setting [4]).
